Key:
[1] = target: FR (folate receptor) on KB cells (Homo sapiens, UniProt P15328); experiment: Relative binding affinity: inhibition of 3H-folate binding to cultured KB cells; settings: read-out: mean IC50 (relative binding affinity, block of 3H-folic acid binding), 10 nM 3H-folate, 1 h, 37 °C
[2] = tested on: KB tumor xenografts (FR+); experiment: Ex vivo biodistribution in nude mice bearing KB tumor xenografts; settings: 120 min p.i., ± SEM

Sequence of FR (folate receptor) on KB cells (P15328 25-257): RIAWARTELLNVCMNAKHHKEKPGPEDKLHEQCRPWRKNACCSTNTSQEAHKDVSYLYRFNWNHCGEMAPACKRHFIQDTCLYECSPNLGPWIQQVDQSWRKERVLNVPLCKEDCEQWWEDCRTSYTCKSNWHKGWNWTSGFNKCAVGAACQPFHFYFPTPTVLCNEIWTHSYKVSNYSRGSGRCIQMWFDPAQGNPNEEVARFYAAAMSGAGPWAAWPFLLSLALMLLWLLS

For `Nc1nc2ncc(CNc3ccc(C(=O)N[C@@H](CCC(=O)NCCOCCOCCNC(=O)CN4CCN(CC(=O)O)CCN(CC(=O)O)CC4)C(=O)O)cc3)nc2c(=O)[nH]1` [folate-NOTA], the IC50 [1] was 18.7 nM.

`[NH-][C@@H](CNC(=O)CC[C@@H](NC(=O)c1ccc(NCc2cnc3nc(N)[nH]c(=O)c3n2)cc1)C(=O)O)C(=O)[N-][C@@H](CC(=O)O)C(=O)[N-][C@@H](C[S-])C(=O)O.[O]=[Tc+4]` [^99mTc-EC20] was tested, and the “Biodistribution: Blood” value ([2]; Control) was 0.3 ± 0.01 %ID/g, the “Biodistribution: Heart” value ([2]; Control) was 1.9 ± 0.1 %ID/g and the “Biodistribution: KB Tumor” value ([2]; Control) was 10.9 ± 0.6 %ID/g. The “Biodistribution: Kidney” value ([2]; Control) was 113.0 ± 3.6 %ID/g, the “Biodistribution: Liver” value ([2]; Control) was 4.1 ± 0.3 %ID/g and the “Biodistribution: Lung” value ([2]; Control) was 2.1 ± 0.1 %ID/g. For the same compound, the “Biodistribution: Muscle” value ([2]; Control) was 1.2 ± 0.04 %ID/g, the “Biodistribution: Plasma” value ([2]; Control) was 0.5 ± 0.03 %ID/g and the “Biodistribution: Spleen” value ([2]; Control) was 0.8 ± 0.1 %ID/g. The “KB Tumor/Blood ratio” value ([2]; Control) was 41.5 ± 2.2, the “KB Tumor/Kidney ratio” value ([2]; Control) was 0.1 ± 0.01 and the “KB Tumor/Liver ratio” value ([2]; Control) was 3.1 ± 0.3. For the same compound, the “Biodistribution: Blood” value ([2]; FA Block (100 μg folic acid)) was 0.3 ± 0.1 %ID/g, the “Biodistribution: Heart” value ([2]; FA Block (100 μg folic acid)) was 0.1 ± 0.02 %ID/g and the “Biodistribution: KB Tumor” value ([2]; FA Block (100 μg folic acid)) was 0.9 ± 0.1 %ID/g. The “Biodistribution: Kidney” value ([2]; FA Block (100 μg folic acid)) was 6.7 ± 1.6 %ID/g, the “Biodistribution: Liver” value ([2]; FA Block (100 μg folic acid)) was 2.5 ± 0.5 %ID/g and the “Biodistribution: Lung” value ([2]; FA Block (100 μg folic acid)) was 0.8 ± 0.2 %ID/g. For the same compound, the “Biodistribution: Muscle” value ([2]; FA Block (100 μg folic acid)) was 0.1 ± 0.02 %ID/g, the “Biodistribution: Plasma” value ([2]; FA Block (100 μg folic acid)) was 0.5 ± 0.1 %ID/g and the “Biodistribution: Spleen” value ([2]; FA Block (100 μg folic acid)) was 0.5 ± 0.2 %ID/g. The “KB Tumor/Blood ratio” value ([2]; FA Block (100 μg folic acid)) was 2.9 ± 0.4, the “KB Tumor/Kidney ratio” value ([2]; FA Block (100 μg folic acid)) was 0.1 ± 0.02 and the “KB Tumor/Liver ratio” value ([2]; FA Block (100 μg folic acid)) was 0.4 ± 0.1.

Reference: publication PMC5343510 (Molecular pharmaceutics, 2016)
